{
  "source": "PubChem BioAssay AID1259409",
  "about": "(Chemical Carcinogenesis Research Information System (CCRIS), 2018)",
  "origin": "cited, not measured here",
  "system": "rodent chemically induced tumor inhibition, incidence and multiplicity",
  "test": "CCRIS tumor inhibitor studies",
  "settings": "Dose [Inhibitor]: 0",
  "data": [
    {"smiles": "O=S(=O)([O-])[O-].O=S(=O)([O-])[O-].O=S(=O)([O-])[O-].[Mo]", "values": [
      {"measurement": "tumour outcome (control, treated, inhibition, significance)", "setting": "Carcinogen: N-METHYL-N-BENZYLNITROSAMINE, 937-40-6, 2 PPM IN DIET FOR 1 WK PRIOR TO CARCINOGEN (STUDY DURATION: 25 WK), Route [Inhibitor]: ORAL, Species: RAT, Strain/Sex: F344/MALE, Target Tissue: Type of Lesion: ESOPHAGUS: CARCINOMA, Dose [Carcinogen]: 2.5 MG/KG 1/WK FOR 20 WK", "result": "30/41 (73%), 20/45 (44%), 40%, p<0.01"}
    ]},
    {"smiles": "COc1c(N2C[C@@H]3CCCN[C@@H]3C2)c(F)cc2c(=O)c(C(=O)O)cn(C3CC3)c12", "values": [
      {"measurement": "outcome", "setting": "Carcinogen: N-BUTYL-N-(4-HYDROXYBUTYL)NITROSAMINE, 3817-11-6, 500 MG/KG BW/D FOR 24 WK BEGINNING 14 WK POST CARCINOGEN FIRST DOSE (STUDY DURATION: 38 WK), Route [Inhibitor]: ORAL, Species: RAT, Strain/Sex: WISTAR/MALE, FEMALE, Target Tissue: Type of Lesion: LIVER: TUMOR, Dose [Carcinogen]: 0.02% IN DRINKING WATER FOR FIRST 9 WK", "result": "0%, 1/18 (6%), -100%, not significant"},
      {"measurement": "tumour outcome (control, treated, inhibition, significance)", "setting": "Carcinogen: N-BUTYL-N-(4-HYDROXYBUTYL)NITROSAMINE, 3817-11-6, 500 MG/KG BW/D FOR 24 WK BEGINNING 14 WK POST CARCINOGEN FIRST DOSE (STUDY DURATION: 38 WK), Route [Inhibitor]: ORAL, Species: RAT, Strain/Sex: WISTAR/MALE, FEMALE, Target Tissue: Type of Lesion: URINARY BLADDER: TUMOR, Dose [Carcinogen]: 0.02% IN DRINKING WATER FOR FIRST 9 WK", "result": "13/18 (72%), 10/18 (56%), 22%, not significant"},
      {"measurement": "tumour outcome (control, treated, inhibition, significance)", "setting": "Carcinogen: N-ETHYL-N-NITROSOUREA, 759-73-9, 500 MG/KG BW/D FOR 24 WK BEGINNING 14 WK POST CARCINOGEN FIRST DOSE (STUDY DURATION: 38 WK), Route [Inhibitor]: ORAL, Species: RAT, Strain/Sex: WISTAR/MALE, FEMALE, Target Tissue: Type of Lesion: AUDITORY SEBACEOUS GLAND: TUMOR, Dose [Carcinogen]: 20 MG/KG BW 1/WK FOR FIRST 10 WK", "result": "9/26 (35%), 4/26 (15%), 57%, not significant"},
      {"measurement": "tumour outcome (control, treated, inhibition, significance)", "setting": "Carcinogen: N-ETHYL-N-NITROSOUREA, 759-73-9, 500 MG/KG BW/D FOR 24 WK BEGINNING 14 WK POST CARCINOGEN FIRST DOSE (STUDY DURATION: 38 WK), Route [Inhibitor]: ORAL, Species: RAT, Strain/Sex: WISTAR/MALE, FEMALE, Target Tissue: Type of Lesion: HEART: TUMOR, Dose [Carcinogen]: 20 MG/KG BW 1/WK FOR FIRST 10 WK", "result": "1/26 (4%), 0%, 100%, not significant"},
      {"measurement": "tumour outcome (control, treated, inhibition, significance)", "setting": "Carcinogen: N-ETHYL-N-NITROSOUREA, 759-73-9, 500 MG/KG BW/D FOR 24 WK BEGINNING 14 WK POST CARCINOGEN FIRST DOSE (STUDY DURATION: 38 WK), Route [Inhibitor]: ORAL, Species: RAT, Strain/Sex: WISTAR/MALE, FEMALE, Target Tissue: Type of Lesion: HEMATOLYMPHORETICULAR: TUMOR, Dose [Carcinogen]: 20 MG/KG BW 1/WK FOR FIRST 10 WK", "result": "15/26 (58%), 13/26 (50%), 14%, not significant"},
      {"measurement": "tumour outcome (control, treated, inhibition, significance)", "setting": "Carcinogen: N-ETHYL-N-NITROSOUREA, 759-73-9, 500 MG/KG BW/D FOR 24 WK BEGINNING 14 WK POST CARCINOGEN FIRST DOSE (STUDY DURATION: 38 WK), Route [Inhibitor]: ORAL, Species: RAT, Strain/Sex: WISTAR/MALE, FEMALE, Target Tissue: Type of Lesion: LARGE INTESTINE: TUMOR, Dose [Carcinogen]: 20 MG/KG BW 1/WK FOR FIRST 10 WK", "result": "9/26 (35%), 7/26 (27%), 23%, not significant"},
      {"measurement": "outcome", "setting": "Carcinogen: N-ETHYL-N-NITROSOUREA, 759-73-9, 500 MG/KG BW/D FOR 24 WK BEGINNING 14 WK POST CARCINOGEN FIRST DOSE (STUDY DURATION: 38 WK), Route [Inhibitor]: ORAL, Species: RAT, Strain/Sex: WISTAR/MALE, FEMALE, Target Tissue: Type of Lesion: LIVER: TUMOR, Dose [Carcinogen]: 20 MG/KG BW 1/WK FOR FIRST 10 WK", "result": "0%, 0%, 0%, not significant"},
      {"measurement": "tumour outcome (control, treated, inhibition, significance)", "setting": "Carcinogen: N-ETHYL-N-NITROSOUREA, 759-73-9, 500 MG/KG BW/D FOR 24 WK BEGINNING 14 WK POST CARCINOGEN FIRST DOSE (STUDY DURATION: 38 WK), Route [Inhibitor]: ORAL, Species: RAT, Strain/Sex: WISTAR/MALE, FEMALE, Target Tissue: Type of Lesion: MAMMARY GLAND: TUMOR, Dose [Carcinogen]: 20 MG/KG BW 1/WK FOR FIRST 10 WK", "result": "5/26 (19%), 2/26 (8%), 58%, not significant"},
      {"measurement": "outcome", "setting": "Carcinogen: N-ETHYL-N-NITROSOUREA, 759-73-9, 500 MG/KG BW/D FOR 24 WK BEGINNING 14 WK POST CARCINOGEN FIRST DOSE (STUDY DURATION: 38 WK), Route [Inhibitor]: ORAL, Species: RAT, Strain/Sex: WISTAR/MALE, FEMALE, Target Tissue: Type of Lesion: MESENTERY: TUMOR, Dose [Carcinogen]: 20 MG/KG BW 1/WK FOR FIRST 10 WK", "result": "0%, 1/26 (4%), -100%, not significant"},
      {"measurement": "outcome", "setting": "Carcinogen: N-ETHYL-N-NITROSOUREA, 759-73-9, 500 MG/KG BW/D FOR 24 WK BEGINNING 14 WK POST CARCINOGEN FIRST DOSE (STUDY DURATION: 38 WK), Route [Inhibitor]: ORAL, Species: RAT, Strain/Sex: WISTAR/MALE, FEMALE, Target Tissue: Type of Lesion: NASAL CAVITY: TUMOR, Dose [Carcinogen]: 20 MG/KG BW 1/WK FOR FIRST 10 WK", "result": "0%, 0%, 0%, not significant"},
      {"measurement": "outcome", "setting": "Carcinogen: N-ETHYL-N-NITROSOUREA, 759-73-9, 500 MG/KG BW/D FOR 24 WK BEGINNING 14 WK POST CARCINOGEN FIRST DOSE (STUDY DURATION: 38 WK), Route [Inhibitor]: ORAL, Species: RAT, Strain/Sex: WISTAR/MALE, FEMALE, Target Tissue: Type of Lesion: PANCREAS: TUMOR, Dose [Carcinogen]: 20 MG/KG BW 1/WK FOR FIRST 10 WK", "result": "0%, 0%, 0%, not significant"},
      {"measurement": "tumour outcome (control, treated, inhibition, significance)", "setting": "Carcinogen: N-ETHYL-N-NITROSOUREA, 759-73-9, 500 MG/KG BW/D FOR 24 WK BEGINNING 14 WK POST CARCINOGEN FIRST DOSE (STUDY DURATION: 38 WK), Route [Inhibitor]: ORAL, Species: RAT, Strain/Sex: WISTAR/MALE, FEMALE, Target Tissue: Type of Lesion: SEMINAL VESICLES: TUMOR, Dose [Carcinogen]: 20 MG/KG BW 1/WK FOR FIRST 10 WK", "result": "1/26 (4%), 0%, 100%, not significant"},
      {"measurement": "tumour outcome (control, treated, inhibition, significance)", "setting": "Carcinogen: N-ETHYL-N-NITROSOUREA, 759-73-9, 500 MG/KG BW/D FOR 24 WK BEGINNING 14 WK POST CARCINOGEN FIRST DOSE (STUDY DURATION: 38 WK), Route [Inhibitor]: ORAL, Species: RAT, Strain/Sex: WISTAR/MALE, FEMALE, Target Tissue: Type of Lesion: SKIN: TUMOR, Dose [Carcinogen]: 20 MG/KG BW 1/WK FOR FIRST 10 WK", "result": "9/26 (35%), 10/26 (39%), -11%, not significant"},
      {"measurement": "outcome", "setting": "Carcinogen: N-ETHYL-N-NITROSOUREA, 759-73-9, 500 MG/KG BW/D FOR 24 WK BEGINNING 14 WK POST CARCINOGEN FIRST DOSE (STUDY DURATION: 38 WK), Route [Inhibitor]: ORAL, Species: RAT, Strain/Sex: WISTAR/MALE, FEMALE, Target Tissue: Type of Lesion: SUBCUTIS: TUMOR, Dose [Carcinogen]: 20 MG/KG BW 1/WK FOR FIRST 10 WK", "result": "0%, 0%, 0%, not significant"}
    ]},
    {"smiles": "C=C(C)[C@@H]1CC=C2C(=CC[C@]3(C)[C@@H](C(CCC=C(C)C)C(=O)O)[C@H](O)C[C@@]23C)[C@@]1(C)CCC(=O)O", "note": "(some centres not stated)", "values": [
      {"measurement": "tumour outcome (control, treated, inhibition, significance)", "setting": "Carcinogen: 7,12-DIMETHYLBENZ[A]ANTHRACENE, 57-97-6, 0.2 UMOL 2/WK FOR 19 WK BEGINNING 1 WK POST CARCINOGEN DOSE (STUDY DURATION: 20 WK), Route [Inhibitor]: DERMAL, Species: MOUSE, Strain/Sex: ICR, Target Tissue: Type of Lesion: SKIN: PAPILLOMA, Dose [Carcinogen]: 50 UG ONCE, Promoter: 12-O-TETRADECANOYLPHORBOL-13-ACETATE, 16561-29-8", "result": "73%, 32%, 56%, not calculated"},
      {"measurement": "tumour outcome (control, treated, inhibition, significance)", "setting": "Carcinogen: 7,12-DIMETHYLBENZ[A]ANTHRACENE, 57-97-6, 0.2 UMOL IN 100 µL ACETONE:DMSO (9:1) 2/WK FOR 20 WK APPLIED 30 MIN PRIOR TO EACH CARCINOGEN DOSE (STUDY DURATION: 20, Route [Inhibitor]: DERMAL, Species: MOUSE, Strain/Sex: ICR/FEMALE, Target Tissue: Type of Lesion: SKIN: PAPILLOMA, Dose [Carcinogen]: 50 UG IN 100 µL ACETONE ONCE, Promoter: 12-O-TETRADECANOYLPHORBOL-13-ACETATE, 16561-29-8", "result": "73%, 33%, 55%, p<0.05"}
    ]}
  ]
}
